A short description of the data set: activity coefficient (dimensionless); of the first substance listed, at infinite dilution; xn = mol fraction of the nth substance listed. Conditions: Liquid, Chromatography, x1 = 0.

Data on 42 compounds can be found in the NIST ThermoML archive (doi:10.1021/je9003178).

SMILES strings stand for the structures. Numbers after ± are expanded uncertainties.

On to `C1CCCCC1` [cyclohexane] + CCCCCC[N+](C)(C)C.O=S(=O)([N-]S(=O)(=O)C(F)(F)F)C(F)(F)F, for which the activity coefficient by setting is: (322.65 K) 6.6 ± 0.3; (343.85 K) 5.9 ± 0.27; (352.65 K) 5.74 ± 0.26.
As for `CCc1ccccc1` [ethylbenzene] + CCn1cc[n+](C)c1.N#CN=C=[N-], the activity coefficient is, setting by setting: (322.65 K) 7.43 ± 0.34; (332.85 K) 7.38 ± 0.34; (343.15 K) 7.29 ± 0.33.
The corresponding values for `C1CCCCCC1` [cycloheptane] + CCn1cc[n+](C)c1.N#CN=C=[N-] are 128 ± 6, 169 ± 8 and 221 ± 10.
`C1COCCO1` [1,4-dioxane] + CCCCCC[N+](C)(C)C.O=S(=O)([N-]S(=O)(=O)C(F)(F)F)C(F)(F)F: the activity coefficient (322.65 K) stood at 0.655 ± 0.03, the activity coefficient (343.85 K) came out at 0.661 ± 0.03 and the activity coefficient (352.65 K) came to 0.68 ± 0.03.
`C#CCCCC` [1-hexyne] + CCn1cc[n+](C)c1.N#CN=C=[N-]: the activity coefficient runs as follows: (322.65 K) 8.7 ± 0.4; (332.85 K) 8.47 ± 0.39; (343.15 K) 8.44 ± 0.39.
Take `CCCCCCCCCCCC` [dodecane] + CCCCCC[N+](C)(C)C.O=S(=O)([N-]S(=O)(=O)C(F)(F)F)C(F)(F)F: the activity coefficient is, setting by setting: (322.65 K) 68.1 ± 3.2; (343.85 K) 55.8 ± 2.6; (352.65 K) 52.9 ± 2.5.
For the compound `Cc1ccccc1C` [1,2-dimethylbenzene] + CCn1cc[n+](C)c1.N#CN=C=[N-], the activity coefficient by setting is: (322.65 K) 5.86 ± 0.27; (332.85 K) 5.8 ± 0.27; (343.15 K) 5.75 ± 0.26.
With `c1ccncc1` [pyridine] + CCCCCC[N+](C)(C)C.O=S(=O)([N-]S(=O)(=O)C(F)(F)F)C(F)(F)F, the activity coefficient turned out to be 0.336 ± 0.035 (322.65 K), 0.589 ± 0.031 (343.85 K) and 0.607 ± 0.031 (352.65 K).
Take `CCO` [ethanol] + CCCCCC[N+](C)(C)C.O=S(=O)([N-]S(=O)(=O)C(F)(F)F)C(F)(F)F: the activity coefficient reads like this: (322.65 K) 2.41 ± 0.11; (343.85 K) 1.28 ± 0.043; (352.65 K) 1.21 ± 0.039.
For the compound `CCCCCCCCCCC` [undecane] + CCCCCC[N+](C)(C)C.O=S(=O)([N-]S(=O)(=O)C(F)(F)F)C(F)(F)F, the activity coefficient was 51.2 ± 2.4 (322.65 K), 42 ± 2 (343.85 K) and 39.7 ± 1.8 (352.65 K).
With `CCCCCC` [hexane] + CCn1cc[n+](C)c1.N#CN=C=[N-], the activity coefficient is, setting by setting: (322.65 K) 111 ± 5.2; (332.85 K) 99.6 ± 4.7; (343.15 K) 89.5 ± 4.2.
Turning to `c1ccsc1` [thiophene] + CCn1cc[n+](C)c1.N#CN=C=[N-], the activity coefficient is, setting by setting: (322.65 K) 1.6 ± 0.06; (332.85 K) 1.51 ± 0.06; (343.15 K) 1.53 ± 0.06.
As for `CCCO` [propan-1-ol] + CCn1cc[n+](C)c1.N#CN=C=[N-], the activity coefficient (322.65 K) amounted to 1.07 ± 0.03, the activity coefficient (332.85 K) came out at 1.01 ± 0.03 and the activity coefficient (343.15 K) came to 0.97 ± 0.03.
As to `CCC=O` [propanal] + CCn1cc[n+](C)c1.N#CN=C=[N-], the activity coefficient (322.65 K) worked out at 1.4 ± 0.05, the activity coefficient (332.85 K) was found to be 1.39 ± 0.05 and the activity coefficient (343.15 K) came to 1.37 ± 0.05.
Regarding `CCCCCCCCCCCCC` [tridecane] + CCn1cc[n+](C)c1.N#CN=C=[N-], the activity coefficient reads like this: (322.65 K) 1940 ± 94; (332.85 K) 1780 ± 86; (343.15 K) 1650 ± 79.
The corresponding values for `C#CCCCCC` [1-heptyne] + CCn1cc[n+](C)c1.N#CN=C=[N-] are 14.5 ± 0.67, 14.3 ± 0.66 and 14.1 ± 0.65.
For `C#CCCCC` [1-hexyne] + CCCCCC[N+](C)(C)C.O=S(=O)([N-]S(=O)(=O)C(F)(F)F)C(F)(F)F, the activity coefficient by setting is: (322.65 K) 2.62 ± 0.12; (343.85 K) 2.56 ± 0.12; (352.65 K) 2.58 ± 0.12.
As to `CC1CCCC1` [methylcyclopentane] + CCn1cc[n+](C)c1.N#CN=C=[N-], the activity coefficient by setting is: (322.65 K) 50.3 ± 2.4; (332.85 K) 46.5 ± 2.2; (343.15 K) 43.2 ± 2.
As to `CC(C)CC(C)(C)C` [2,2,4-trimethylpentane] + CCn1cc[n+](C)c1.N#CN=C=[N-], the activity coefficient runs as follows: (322.65 K) 202 ± 9.5; (332.85 K) 180 ± 8.5; (343.15 K) 162 ± 7.6.
As for `CCCCCCCCCCCCCC` [tetradecane] + CCCCCC[N+](C)(C)C.O=S(=O)([N-]S(=O)(=O)C(F)(F)F)C(F)(F)F, the activity coefficient (322.65 K) was determined as 159 ± 7.5, the activity coefficient (343.85 K) came out at 101 ± 4.7 and the activity coefficient (352.65 K) was found to be 84.7 ± 4.
The corresponding values for `Cc1ccccc1C` [1,2-dimethylbenzene] + CCCCCC[N+](C)(C)C.O=S(=O)([N-]S(=O)(=O)C(F)(F)F)C(F)(F)F are 1.66 ± 0.068, 1.69 ± 0.07 and 1.76 ± 0.075.
`CCCCO` [butan-1-ol] + CCn1cc[n+](C)c1.N#CN=C=[N-]: the activity coefficient was 1.59 ± 0.06 (322.65 K), 1.47 ± 0.06 (332.85 K) and 1.4 ± 0.05 (343.15 K).
For `C[N+](=O)[O-]` [nitromethane] + CCCCCC[N+](C)(C)C.O=S(=O)([N-]S(=O)(=O)C(F)(F)F)C(F)(F)F, the activity coefficient is, setting by setting: (322.65 K) 0.975 ± 0.025; (343.85 K) 0.567 ± 0.031; (352.65 K) 0.568 ± 0.031.
`CCOCC` [diethyl ether] + CCn1cc[n+](C)c1.N#CN=C=[N-]: the activity coefficient reads like this: (322.65 K) 9.88 ± 0.45; (332.85 K) 9.71 ± 0.45; (343.15 K) 9.56 ± 0.44.
`Cc1cccc(C)c1` [1,3-dimethylbenzene] + CCn1cc[n+](C)c1.N#CN=C=[N-]: the activity coefficient (322.65 K) stood at 7.4 ± 0.34, the activity coefficient (332.85 K) stood at 8.39 ± 0.38 and the activity coefficient (343.15 K) turned out to be 7.27 ± 0.33.
As to `C1CCOC1` [tetrahydrofuran] + CCCCCC[N+](C)(C)C.O=S(=O)([N-]S(=O)(=O)C(F)(F)F)C(F)(F)F, the activity coefficient reads like this: (322.65 K) 0.686 ± 0.03; (343.85 K) 0.754 ± 0.029; (352.65 K) 0.808 ± 0.028.
With `CC#N` [acetonitrile] + CCn1cc[n+](C)c1.N#CN=C=[N-], the activity coefficient was determined as 0.8 ± 0.03 (322.65 K), 0.79 ± 0.03 (332.85 K) and 0.79 ± 0.03 (343.15 K).
For the compound `CC1CCCCC1` [methylcyclohexane] + CCn1cc[n+](C)c1.N#CN=C=[N-], the activity coefficient runs as follows: (322.65 K) 73.9 ± 3.5; (332.85 K) 67.1 ± 3.1; (343.15 K) 61.3 ± 2.9.
Take `CCCCCCCCCCCCC` [tridecane] + CCCCCC[N+](C)(C)C.O=S(=O)([N-]S(=O)(=O)C(F)(F)F)C(F)(F)F: the activity coefficient is 100 ± 4.7 (322.65 K), 76.2 ± 3.6 (343.85 K) and 71.5 ± 3.3 (352.65 K).
Turning to `ClCCl` [dichloromethane] + CCCCCC[N+](C)(C)C.O=S(=O)([N-]S(=O)(=O)C(F)(F)F)C(F)(F)F, the activity coefficient runs as follows: (322.65 K) 0.678 ± 0.03; (343.85 K) 0.728 ± 0.029; (352.65 K) 0.759 ± 0.029.
In the case of `Cc1cccc(C)c1` [1,3-dimethylbenzene] + CCCCCC[N+](C)(C)C.O=S(=O)([N-]S(=O)(=O)C(F)(F)F)C(F)(F)F, the activity coefficient reads like this: (322.65 K) 1.8 ± 0.077; (343.85 K) 1.82 ± 0.078; (352.65 K) 1.89 ± 0.083.
Consider `c1ccccc1` [benzene] + CCCCCC[N+](C)(C)C.O=S(=O)([N-]S(=O)(=O)C(F)(F)F)C(F)(F)F, for which the activity coefficient by setting is: (322.65 K) 0.99 ± 0.025; (343.85 K) 0.993 ± 0.025; (352.65 K) 1.02 ± 0.026.
For `C1CCCCCC1` [cycloheptane] + CCCCCC[N+](C)(C)C.O=S(=O)([N-]S(=O)(=O)C(F)(F)F)C(F)(F)F, the activity coefficient (322.65 K) was 14.3 ± 0.66, the activity coefficient (343.85 K) amounted to 33.3 ± 1.5 and the activity coefficient (352.65 K) came to 43.4 ± 2.
Regarding `OCC(F)(F)F` [2,2,2-trifluoroethanol] + CCCCCC[N+](C)(C)C.O=S(=O)([N-]S(=O)(=O)C(F)(F)F)C(F)(F)F, the activity coefficient came out at 0.157 ± 0.038 (322.65 K), 0.402 ± 0.034 (343.85 K) and 0.393 ± 0.034 (352.65 K).
Turning to `CC(C)OC(C)C` [diisopropyl ether] + CCCCCC[N+](C)(C)C.O=S(=O)([N-]S(=O)(=O)C(F)(F)F)C(F)(F)F, the activity coefficient reads like this: (322.65 K) 3.2 ± 0.15; (343.85 K) 4.03 ± 0.18; (352.65 K) 4.12 ± 0.19.
In the case of `CCOC(C)=O` [ethyl acetate] + CCCCCC[N+](C)(C)C.O=S(=O)([N-]S(=O)(=O)C(F)(F)F)C(F)(F)F, the activity coefficient was found to be 0.72 ± 0.029 (322.65 K), 0.748 ± 0.029 (343.85 K) and 0.776 ± 0.028 (352.65 K).
Consider `CCC(C)=O` [butanone] + CCCCCC[N+](C)(C)C.O=S(=O)([N-]S(=O)(=O)C(F)(F)F)C(F)(F)F, for which the activity coefficient was found to be 0.422 ± 0.034 (322.65 K), 0.365 ± 0.035 (343.85 K) and 0.354 ± 0.035 (352.65 K).
As for `CC(C)CO` [2-methyl-1-propanol] + CCn1cc[n+](C)c1.N#CN=C=[N-], the activity coefficient (322.65 K) was determined as 1.48 ± 0.06, the activity coefficient (332.85 K) was determined as 1.4 ± 0.05 and the activity coefficient (343.15 K) stood at 1.33 ± 0.05.
In the same order, the values of `CO` [methanol] + CCn1cc[n+](C)c1.N#CN=C=[N-] are 0.44 ± 0.03, 0.42 ± 0.03 and 0.41 ± 0.03.
Take `CC(C)OC(C)C` [diisopropyl ether] + CCn1cc[n+](C)c1.N#CN=C=[N-]: the activity coefficient (322.65 K) is 32.1 ± 1.5, the activity coefficient (332.85 K) was 32.3 ± 1.5 and the activity coefficient (343.15 K) was determined as 32.4 ± 1.5.
With `CCC(C)CC` [3-methylpentane] + CCCCCC[N+](C)(C)C.O=S(=O)([N-]S(=O)(=O)C(F)(F)F)C(F)(F)F, the activity coefficient by setting is: (322.65 K) 8.65 ± 0.4; (343.85 K) 8.09 ± 0.37; (352.65 K) 7.88 ± 0.36.
Regarding `CCCCCCCCCC` [decane] + CCn1cc[n+](C)c1.N#CN=C=[N-], the activity coefficient worked out at 699 ± 33 (322.65 K), 627 ± 30 (332.85 K) and 565 ± 27 (343.15 K).
